In ChEMBL document CHEMBL1201862, “PubChem BioAssay data set” (2004):
Activity calls are given as the source filed them.

Key:
[1] = target: Sphingosine 1-phosphate receptor 2 (Homo sapiens, UniProt O95136); test: Dose Response Cell Based Assay for Agonists of the S1P2 Receptor of Purchased Analogues. [Related pubchem assays: 729, 843, 854, 736 ]; assay type: functional
[2] = target: T1, Neuropeptide Y receptor type 1 (Homo sapiens, UniProt P25929); test: NPY-Y1 receptor antagonist potency, dose response, cell-based (AID 1277); assay type: functional
T1 sequence (P25929 whole entry): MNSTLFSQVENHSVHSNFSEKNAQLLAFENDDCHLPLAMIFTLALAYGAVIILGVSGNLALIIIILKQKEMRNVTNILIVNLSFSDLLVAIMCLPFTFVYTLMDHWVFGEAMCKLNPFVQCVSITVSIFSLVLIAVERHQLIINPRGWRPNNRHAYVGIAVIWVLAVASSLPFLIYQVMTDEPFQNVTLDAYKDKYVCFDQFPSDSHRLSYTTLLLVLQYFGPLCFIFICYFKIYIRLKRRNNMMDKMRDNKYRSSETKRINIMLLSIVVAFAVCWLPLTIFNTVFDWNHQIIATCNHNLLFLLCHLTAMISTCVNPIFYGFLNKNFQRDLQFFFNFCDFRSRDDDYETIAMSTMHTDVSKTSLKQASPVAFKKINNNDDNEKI

[3] = target: T2, Neuropeptide Y receptor type 2 (Homo sapiens, UniProt P49146); test: NPY-Y2 antagonist potency, selectivity check, dose response, counter-screen for NPY-Y1 antagonist project, cell-based (AID 1278); assay type: functional
T2 sequence (P49146 whole entry): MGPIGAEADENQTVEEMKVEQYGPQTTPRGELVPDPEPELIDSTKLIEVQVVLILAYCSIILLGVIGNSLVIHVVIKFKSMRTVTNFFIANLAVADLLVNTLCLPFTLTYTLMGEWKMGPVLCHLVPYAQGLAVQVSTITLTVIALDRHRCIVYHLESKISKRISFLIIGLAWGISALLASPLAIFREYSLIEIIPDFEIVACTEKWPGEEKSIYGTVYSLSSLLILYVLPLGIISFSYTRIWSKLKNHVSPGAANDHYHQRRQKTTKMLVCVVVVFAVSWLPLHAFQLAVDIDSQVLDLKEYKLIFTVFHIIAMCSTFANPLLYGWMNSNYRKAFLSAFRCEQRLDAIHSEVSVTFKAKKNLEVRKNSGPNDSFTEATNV

Streptococcus = test: Group A Streptococcus viability loss, dose response, counter-screen for streptokinase expression inhibitor project, luminescence, BacTiterGlo (AID 1915); assay type: functional, organism-based;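 also: potency for reduction of bacterial viability or growth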
[4] = HepG2 cell cytotoxicity, dose response, cytotoxicity control, plate reader, cherry-pick, antagonist series (AID 743416); assay type: functional, cell-based
[5] = LGR2 antagonists, dose response, cell-based, HEK293, CRE-luciferase reporter, cherry pick, set 2 (AID 743343); assay type: functional;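 also: transfected cells were stimulated with diluted bursicon conditioned medium after compound addition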
[6] = target: Sphingosine 1-phosphate receptor 3 (Homo sapiens, UniProt Q99500); test: Dose response cell-based high throughput screening assay for antagonists of the Sphingosine 1-Phosphate Receptor 3 (S1P3). [Related pubchem assays: 1429, 485 ]; assay type: functional
Sequence of Sphingosine 1-phosphate receptor 3 (Q99500 whole entry): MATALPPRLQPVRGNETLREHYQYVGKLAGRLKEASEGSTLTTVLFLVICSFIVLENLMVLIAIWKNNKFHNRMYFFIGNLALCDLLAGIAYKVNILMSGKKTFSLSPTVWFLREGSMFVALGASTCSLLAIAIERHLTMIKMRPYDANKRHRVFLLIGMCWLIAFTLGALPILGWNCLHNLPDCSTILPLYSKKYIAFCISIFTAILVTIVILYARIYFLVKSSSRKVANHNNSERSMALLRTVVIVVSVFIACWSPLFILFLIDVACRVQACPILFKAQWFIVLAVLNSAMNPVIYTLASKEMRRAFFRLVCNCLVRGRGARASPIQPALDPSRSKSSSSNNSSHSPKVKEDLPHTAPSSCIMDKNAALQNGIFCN

[7] = MC4R antagonists, dose response, counter-screen for LGR2 antagonist project, cell-based, plate reader, cherry pick (AID 743444); assay type: functional;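 also: transfected HEK 293 cells stimulated with alpha-MSH peptide; potency of inhibitors of the alpha-MSH evoked signal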
[8] = tested on: Streptococcus sp. 'group A'; test: growth inhibition of control SK(-) GAS strain, dose response, counter-screen for streptokinase expression inhibitor project, luminescence, kanamycin, BacTiterGlo, confirmation (AID 1900); assay type: functional, organism-based
Streptokinase A = target: T3, Streptokinase A (Streptococcus pyogenes serotype M1, UniProt P10520); test: S. pyogenes streptokinase expression inhibitors, potency, dose response, plasminogen activation absorbance, OD405 (AID 1914); assay type: functional, Streptococcus pyogenes M1 GAS;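 also: secreted streptokinase activity via plasminogen activation per viability signal from cell pellet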
T3 sequence (P10520 whole entry): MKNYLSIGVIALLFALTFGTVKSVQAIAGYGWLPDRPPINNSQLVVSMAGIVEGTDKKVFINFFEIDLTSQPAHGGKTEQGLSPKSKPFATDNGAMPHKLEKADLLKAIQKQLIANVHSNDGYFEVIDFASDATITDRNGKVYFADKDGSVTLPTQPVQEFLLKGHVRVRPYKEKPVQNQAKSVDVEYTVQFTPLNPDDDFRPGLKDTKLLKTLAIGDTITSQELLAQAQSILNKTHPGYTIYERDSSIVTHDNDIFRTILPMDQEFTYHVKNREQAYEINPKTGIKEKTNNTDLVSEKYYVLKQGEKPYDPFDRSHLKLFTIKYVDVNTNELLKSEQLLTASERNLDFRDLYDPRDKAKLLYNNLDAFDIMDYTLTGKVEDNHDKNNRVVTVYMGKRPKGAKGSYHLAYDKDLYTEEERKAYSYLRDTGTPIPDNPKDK

[9] = A549 cell cytotoxicity, dose response, cytotoxicity control, plate reader, cherry-pick, antagonist series (AID 743412); assay type: functional, cell-based
[10] = target: 5-hydroxytryptamine receptor 1E (Homo sapiens, UniProt P28566); test: Counterscreen assay for S1P3 antagonists: Dose response cell-based high throughput screening assay to identify antagonists of the 5-Hydroxytryptamine Receptor Subtype 1E (5HT1E). [Related pubchem assays: 1429, 485 ]; assay type: functional
Sequence of 5-hydroxytryptamine receptor 1E (P28566 whole entry): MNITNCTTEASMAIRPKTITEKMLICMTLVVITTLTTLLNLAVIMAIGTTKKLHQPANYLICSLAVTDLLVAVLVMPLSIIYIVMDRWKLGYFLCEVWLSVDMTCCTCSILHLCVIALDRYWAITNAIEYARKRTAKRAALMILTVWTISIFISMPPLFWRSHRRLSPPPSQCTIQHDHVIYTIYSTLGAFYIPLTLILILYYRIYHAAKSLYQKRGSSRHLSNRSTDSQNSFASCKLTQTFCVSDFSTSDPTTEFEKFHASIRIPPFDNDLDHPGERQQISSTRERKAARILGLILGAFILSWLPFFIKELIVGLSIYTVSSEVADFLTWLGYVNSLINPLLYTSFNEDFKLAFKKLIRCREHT

[11] = HEK293 cell cytotoxicity, dose response, cytotoxicity control, plate reader, cherry-picked samples (AID 743446); assay type: functional, cell-based
[12] = target: Epstein-Barr nuclear antigen 1 (Epstein-Barr virus (strain B95-8) (HHV-4) (Human herpesvirus 4), UniProt P03211); test: EBNA-1 inhibitors, dose response, biochemical, fluorescence polarization, 1536-well (AID 2381); design: species or system human gammaherpesvirus 4;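 also: fluorescence polarization of a Cy5 DNA probe bound by EBNA-1 protein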
Sequence of Epstein-Barr nuclear antigen 1 (P03211 whole entry): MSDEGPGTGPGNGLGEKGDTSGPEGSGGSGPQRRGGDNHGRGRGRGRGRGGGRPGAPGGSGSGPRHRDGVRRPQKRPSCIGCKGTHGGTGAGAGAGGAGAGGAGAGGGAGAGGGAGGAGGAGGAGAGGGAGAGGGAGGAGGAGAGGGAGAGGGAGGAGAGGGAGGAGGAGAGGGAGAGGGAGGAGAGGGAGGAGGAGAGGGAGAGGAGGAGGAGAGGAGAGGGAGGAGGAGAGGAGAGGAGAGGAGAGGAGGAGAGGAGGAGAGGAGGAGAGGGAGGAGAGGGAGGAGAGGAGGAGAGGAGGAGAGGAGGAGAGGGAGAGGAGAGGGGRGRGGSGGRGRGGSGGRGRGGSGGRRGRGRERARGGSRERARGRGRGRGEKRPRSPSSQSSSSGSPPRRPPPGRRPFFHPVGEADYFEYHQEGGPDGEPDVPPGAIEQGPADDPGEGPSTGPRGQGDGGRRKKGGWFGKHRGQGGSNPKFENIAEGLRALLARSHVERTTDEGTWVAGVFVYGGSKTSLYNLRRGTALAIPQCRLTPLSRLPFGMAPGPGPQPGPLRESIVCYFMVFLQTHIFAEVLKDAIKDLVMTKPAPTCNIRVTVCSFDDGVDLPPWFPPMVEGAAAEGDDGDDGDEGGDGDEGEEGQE

[13] = target: Lytic switch protein BZLF1 (Epstein-Barr virus (strain B95-8) (HHV-4) (Human herpesvirus 4), UniProt P03206); test: EBV ZTA inhibitors, dose response, counter-screen for EBNA-1 inhibitor project, biochemical, fluorescence polarization, Epstein-Barr virus, 1536-well (AID 2377); design: species or system human gammaherpesvirus 4;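 also: fluorescence polarization of Cy5-labelled ZRE DNA probe bound by purified Zta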
Sequence of Lytic switch protein BZLF1 (P03206 whole entry, the tested form may be a part): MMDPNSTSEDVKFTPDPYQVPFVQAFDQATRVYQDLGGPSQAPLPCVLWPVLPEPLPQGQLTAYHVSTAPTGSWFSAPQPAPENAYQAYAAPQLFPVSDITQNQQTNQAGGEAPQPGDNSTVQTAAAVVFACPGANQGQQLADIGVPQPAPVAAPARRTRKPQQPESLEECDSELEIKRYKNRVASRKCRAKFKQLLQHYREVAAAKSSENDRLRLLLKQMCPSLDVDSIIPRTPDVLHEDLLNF

Estrogen receptor = target: T4, Estrogen receptor (Homo sapiens, UniProt P03372); test: potentiators of ERα–SRC-1 coactivator binding, dose response, biochemical, TR-FRET, ERα LBD (AID 737)
T4 sequence (P03372 whole entry): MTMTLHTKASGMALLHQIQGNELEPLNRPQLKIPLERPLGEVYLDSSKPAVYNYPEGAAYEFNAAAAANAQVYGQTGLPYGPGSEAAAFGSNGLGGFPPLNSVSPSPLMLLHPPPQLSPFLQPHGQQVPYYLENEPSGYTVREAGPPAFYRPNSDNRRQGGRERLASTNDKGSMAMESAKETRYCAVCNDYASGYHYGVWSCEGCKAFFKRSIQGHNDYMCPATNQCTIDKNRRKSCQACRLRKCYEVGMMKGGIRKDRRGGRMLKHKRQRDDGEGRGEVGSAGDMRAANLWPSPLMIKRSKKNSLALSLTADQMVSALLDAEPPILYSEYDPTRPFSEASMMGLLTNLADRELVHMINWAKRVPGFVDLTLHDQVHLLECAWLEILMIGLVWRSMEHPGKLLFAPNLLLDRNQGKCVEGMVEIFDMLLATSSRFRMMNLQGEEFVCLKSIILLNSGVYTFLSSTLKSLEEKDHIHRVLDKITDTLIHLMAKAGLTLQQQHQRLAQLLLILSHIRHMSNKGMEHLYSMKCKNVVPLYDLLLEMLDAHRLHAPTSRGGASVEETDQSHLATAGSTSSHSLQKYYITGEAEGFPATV

[14] = inhibitors of Vif binding to APOBEC3G peptide, primary screen, biochemical, TR-FRET, GST-Vif 1-94, biotin-A3G peptide, dose response retest (AID 1117319); assay type: functional;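 also: TR-FRET signal of purified GST-Vif binding a biotinylated A3G peptide; inhibitors lower the FRET signal by blocking Vif and A3G binding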
NADPH oxidase 1 = NADPH oxidase 1 (Homo sapiens, UniProt Q9Y5S8); test: Luminescence-based cell-based dose response assay to identify inhibitors of NADPH oxidase 1 (NOX1).; assay type: functional
Sequence of NADPH oxidase 1 (Q9Y5S8 whole entry): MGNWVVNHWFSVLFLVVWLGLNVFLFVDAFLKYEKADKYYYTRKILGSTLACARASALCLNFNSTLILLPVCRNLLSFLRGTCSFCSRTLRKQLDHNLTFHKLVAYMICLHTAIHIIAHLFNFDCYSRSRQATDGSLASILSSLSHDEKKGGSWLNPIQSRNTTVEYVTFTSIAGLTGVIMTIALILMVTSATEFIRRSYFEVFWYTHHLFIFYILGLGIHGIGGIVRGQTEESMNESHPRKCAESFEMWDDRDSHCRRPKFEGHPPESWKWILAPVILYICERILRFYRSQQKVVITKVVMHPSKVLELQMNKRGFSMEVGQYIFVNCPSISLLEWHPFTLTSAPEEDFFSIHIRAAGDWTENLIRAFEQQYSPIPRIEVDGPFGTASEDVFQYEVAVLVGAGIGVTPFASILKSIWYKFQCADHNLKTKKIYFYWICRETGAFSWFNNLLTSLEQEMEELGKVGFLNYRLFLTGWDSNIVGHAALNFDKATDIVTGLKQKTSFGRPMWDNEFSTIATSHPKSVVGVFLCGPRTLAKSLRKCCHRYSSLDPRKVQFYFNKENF

[15] = target: T5, Alkaline phosphatase, tissue-nonspecific isozyme (Homo sapiens, UniProt P05186); test: human TNAP enzyme inhibitors, SAR follow-up, biochemical, luminescent, dose response (AID 1056)
T5 sequence (P05186 whole entry): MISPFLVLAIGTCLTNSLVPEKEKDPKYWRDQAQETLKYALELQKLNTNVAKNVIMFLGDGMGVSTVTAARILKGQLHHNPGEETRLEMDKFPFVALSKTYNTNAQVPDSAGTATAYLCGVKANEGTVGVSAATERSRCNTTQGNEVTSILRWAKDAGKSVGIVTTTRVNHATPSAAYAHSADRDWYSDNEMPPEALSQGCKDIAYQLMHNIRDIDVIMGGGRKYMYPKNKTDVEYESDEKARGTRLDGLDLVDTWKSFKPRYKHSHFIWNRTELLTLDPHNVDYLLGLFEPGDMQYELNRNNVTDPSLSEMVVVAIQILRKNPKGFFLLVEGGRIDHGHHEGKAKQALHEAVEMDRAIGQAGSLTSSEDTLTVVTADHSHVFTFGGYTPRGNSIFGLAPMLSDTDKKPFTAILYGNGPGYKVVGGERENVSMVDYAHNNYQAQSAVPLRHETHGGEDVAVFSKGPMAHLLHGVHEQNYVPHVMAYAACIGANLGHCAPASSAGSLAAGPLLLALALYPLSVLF

[16] = target: Induced myeloid leukemia cell differentiation protein Mcl-1 (Homo sapiens, UniProt Q07820); test: MCL1-BIM BH3 interaction inhibitors, dose response, biochemical, fluorescence polarization, BIM-BH3 peptide, 1536-well (AID 2217)
Sequence of Induced myeloid leukemia cell differentiation protein Mcl-1 (Q07820 whole entry): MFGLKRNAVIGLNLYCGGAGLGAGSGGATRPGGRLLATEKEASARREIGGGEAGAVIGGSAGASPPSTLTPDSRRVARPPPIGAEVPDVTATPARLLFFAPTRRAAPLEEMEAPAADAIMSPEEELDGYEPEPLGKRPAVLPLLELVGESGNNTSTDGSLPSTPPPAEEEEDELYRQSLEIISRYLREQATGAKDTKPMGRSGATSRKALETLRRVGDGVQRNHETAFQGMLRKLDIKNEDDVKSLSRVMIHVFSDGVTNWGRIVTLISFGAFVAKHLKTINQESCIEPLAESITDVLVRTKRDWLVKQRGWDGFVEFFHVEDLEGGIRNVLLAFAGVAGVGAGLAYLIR

[17] = target: T6, Histone-lysine N-methyltransferase NSD2 (Homo sapiens, UniProt O96028); assay type: biochemical
T6 sequence (O96028 whole entry): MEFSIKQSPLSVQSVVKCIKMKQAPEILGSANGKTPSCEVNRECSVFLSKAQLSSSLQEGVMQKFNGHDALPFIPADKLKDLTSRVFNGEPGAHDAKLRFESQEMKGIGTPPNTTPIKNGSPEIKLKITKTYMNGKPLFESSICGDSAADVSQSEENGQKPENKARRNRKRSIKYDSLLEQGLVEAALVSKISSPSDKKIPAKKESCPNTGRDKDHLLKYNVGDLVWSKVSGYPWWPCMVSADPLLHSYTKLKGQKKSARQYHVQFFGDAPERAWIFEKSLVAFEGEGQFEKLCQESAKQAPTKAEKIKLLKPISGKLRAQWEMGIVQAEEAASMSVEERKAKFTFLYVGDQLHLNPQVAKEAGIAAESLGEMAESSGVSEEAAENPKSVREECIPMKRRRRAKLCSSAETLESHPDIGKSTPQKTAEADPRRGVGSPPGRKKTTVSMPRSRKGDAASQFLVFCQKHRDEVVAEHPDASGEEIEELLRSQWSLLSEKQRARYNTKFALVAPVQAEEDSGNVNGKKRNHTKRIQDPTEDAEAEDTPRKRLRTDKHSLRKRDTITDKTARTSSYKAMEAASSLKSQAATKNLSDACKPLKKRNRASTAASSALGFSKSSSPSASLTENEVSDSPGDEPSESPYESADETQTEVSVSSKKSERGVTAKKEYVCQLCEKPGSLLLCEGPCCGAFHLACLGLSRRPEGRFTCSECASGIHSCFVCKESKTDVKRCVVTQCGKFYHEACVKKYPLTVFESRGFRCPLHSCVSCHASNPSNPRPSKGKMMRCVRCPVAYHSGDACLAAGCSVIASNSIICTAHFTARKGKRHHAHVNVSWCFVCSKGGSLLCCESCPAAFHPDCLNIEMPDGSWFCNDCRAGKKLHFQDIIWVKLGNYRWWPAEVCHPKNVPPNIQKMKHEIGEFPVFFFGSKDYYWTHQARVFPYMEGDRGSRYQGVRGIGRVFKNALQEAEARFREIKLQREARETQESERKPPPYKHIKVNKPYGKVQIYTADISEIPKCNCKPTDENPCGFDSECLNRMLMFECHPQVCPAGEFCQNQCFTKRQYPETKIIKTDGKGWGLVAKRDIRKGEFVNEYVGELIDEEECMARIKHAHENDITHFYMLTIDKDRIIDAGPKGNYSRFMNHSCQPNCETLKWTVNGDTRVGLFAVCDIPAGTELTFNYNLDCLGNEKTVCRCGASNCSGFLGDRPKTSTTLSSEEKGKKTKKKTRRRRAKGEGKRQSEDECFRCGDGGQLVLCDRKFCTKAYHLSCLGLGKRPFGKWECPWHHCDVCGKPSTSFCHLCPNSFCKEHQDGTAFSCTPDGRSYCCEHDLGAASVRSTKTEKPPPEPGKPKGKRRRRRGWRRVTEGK

Bcl-2-like protein 1 = Bcl-2-like protein 1 (Homo sapiens, UniProt Q07817); test: BCL-XL inhibitors, dose response, selectivity assay for MCL1 inhibitor project, biochemical, fluorescence polarization, 1536-well (AID 2218)
Sequence of Bcl-2-like protein 1 (Q07817 whole entry): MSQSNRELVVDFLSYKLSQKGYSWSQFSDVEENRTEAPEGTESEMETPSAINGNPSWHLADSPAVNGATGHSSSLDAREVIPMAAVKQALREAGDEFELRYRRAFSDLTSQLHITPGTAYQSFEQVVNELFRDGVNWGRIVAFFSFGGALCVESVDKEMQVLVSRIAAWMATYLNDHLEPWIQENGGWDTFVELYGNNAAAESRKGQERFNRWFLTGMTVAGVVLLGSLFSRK

Large T antigen = Large T antigen (Simian virus 40, UniProt P03070); assay type: functional, Betapolyomavirus macacae;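 also: Confirmatory-stage PubChem screen for compounds that inhibit SV40 T antigen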
Sequence of Large T antigen (P03070 whole entry): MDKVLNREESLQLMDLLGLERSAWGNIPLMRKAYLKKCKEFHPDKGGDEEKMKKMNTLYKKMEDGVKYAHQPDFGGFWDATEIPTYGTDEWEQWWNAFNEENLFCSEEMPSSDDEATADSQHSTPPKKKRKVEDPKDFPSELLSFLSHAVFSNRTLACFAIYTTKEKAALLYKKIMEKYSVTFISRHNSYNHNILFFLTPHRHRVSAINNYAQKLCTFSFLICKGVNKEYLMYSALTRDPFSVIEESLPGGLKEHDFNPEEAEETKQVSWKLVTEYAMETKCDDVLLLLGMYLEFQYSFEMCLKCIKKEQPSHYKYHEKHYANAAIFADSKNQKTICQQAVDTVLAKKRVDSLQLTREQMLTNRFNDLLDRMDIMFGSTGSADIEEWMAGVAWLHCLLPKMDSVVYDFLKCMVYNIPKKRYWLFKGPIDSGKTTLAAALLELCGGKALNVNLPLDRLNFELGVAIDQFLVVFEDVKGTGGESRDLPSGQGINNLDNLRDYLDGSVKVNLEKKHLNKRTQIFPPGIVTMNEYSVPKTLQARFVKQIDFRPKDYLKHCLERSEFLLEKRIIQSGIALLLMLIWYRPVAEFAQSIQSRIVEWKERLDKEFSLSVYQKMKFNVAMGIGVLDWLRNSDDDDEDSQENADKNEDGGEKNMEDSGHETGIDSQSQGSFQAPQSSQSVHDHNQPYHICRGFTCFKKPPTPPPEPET

[18] = target: Alkaline phosphatase, placental type (Homo sapiens, UniProt P05187); test: PLAP enzyme inhibitors, confirmation, biochemical, luminescence (AID 1512); assay type: functional
Sequence of Alkaline phosphatase, placental type (P05187 whole entry): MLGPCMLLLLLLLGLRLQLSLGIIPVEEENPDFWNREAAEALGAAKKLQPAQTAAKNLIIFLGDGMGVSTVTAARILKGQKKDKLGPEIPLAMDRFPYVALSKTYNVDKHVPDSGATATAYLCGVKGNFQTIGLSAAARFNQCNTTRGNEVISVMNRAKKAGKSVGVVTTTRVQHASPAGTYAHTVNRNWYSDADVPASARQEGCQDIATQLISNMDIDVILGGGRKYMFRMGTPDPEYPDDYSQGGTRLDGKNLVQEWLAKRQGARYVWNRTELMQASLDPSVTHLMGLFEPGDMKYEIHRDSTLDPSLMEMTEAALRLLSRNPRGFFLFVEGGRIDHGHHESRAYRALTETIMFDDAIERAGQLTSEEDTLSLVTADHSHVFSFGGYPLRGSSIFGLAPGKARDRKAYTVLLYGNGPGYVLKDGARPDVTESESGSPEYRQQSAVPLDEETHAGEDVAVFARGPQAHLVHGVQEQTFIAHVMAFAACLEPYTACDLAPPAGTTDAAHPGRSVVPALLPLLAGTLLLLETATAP

Sequence of Sphingosine 1-phosphate receptor 2 (O95136 whole entry): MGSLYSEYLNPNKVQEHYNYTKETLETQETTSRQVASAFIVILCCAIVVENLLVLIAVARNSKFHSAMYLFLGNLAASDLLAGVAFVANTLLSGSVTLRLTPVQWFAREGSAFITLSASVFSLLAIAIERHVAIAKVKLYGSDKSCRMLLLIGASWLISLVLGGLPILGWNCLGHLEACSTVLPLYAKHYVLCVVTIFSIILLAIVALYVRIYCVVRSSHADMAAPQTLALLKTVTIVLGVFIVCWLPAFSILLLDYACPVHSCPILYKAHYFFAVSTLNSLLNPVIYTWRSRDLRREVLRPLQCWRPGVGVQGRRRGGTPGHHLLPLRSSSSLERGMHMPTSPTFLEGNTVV

## Cc1cc(C(=O)COC(=O)C2CCC2)c(C)n1Cc1ccccc1
[1]
  EC50: > 30 µM (not active)

## COC(=O)[C@@]1(Cc2ccc(F)cc2)[C@H]2c3cc(C(=O)N4CCCC4)n(Cc4ccc(C(F)(F)F)nc4)c3C[C@H]2CN1C(=O)c1ccccc1
[2]
  IC50: > 35 µM (not active)
[3]
  IC50: > 35 µM (not active)

## Cc1cccc(Cn2nc(C(C)(C)C)cc2C(=O)Nc2ccc(F)cc2)c1
Streptococcus
  EC50: 16.3 µM (active)
[4]
  AC50: > 52 µM (inactive)
[5]
  AC50: 14.6 µM (active)
[6]
  IC50: 5.22 µM (active)
[7]
  AC50: 26.4 µM (active)
[8]
  EC50: 7.66 µM (active)
Streptokinase A
  EC50: 1.9 µM (active)
[9]
  AC50: 26.5 µM (active)
[10]
  IC50: 3.86 µM (active)
[11]
  AC50: 8.76 µM (active)

## c1ccc(-c2ccc(C3=Nn4c(nnc4-c4cc(-c5ccccc5)[nH]n4)SC3)cc2)cc1
[12]
  IC50: 16.1 µM (not active)
[13]
  IC50: > 111 µM (not active)

## Cc1ccc(F)cc1NC(=O)c1cccc2nccnc12
Estrogen receptor
  EC50: 13 µM (not active)

## CN(C)c1ccc(NC(=O)Nc2cccc(Cl)c2)cc1
[14]
  IC50: > 51.6 µM (active)
NADPH oxidase 1
  IC50: 0.048 µM (active)

## C=CCn1c(SCC(=O)c2ccc(O)c(O)c2)nnc1-c1cccnc1
[15]
  IC50: 22.2 µM (active)
[16]
  IC50: 9.37 µM (active)
[17]
  AC50: 4.18 µM (active)
Bcl-2-like protein 1
  IC50: > 109 µM (not active)
Large T antigen
  IC50: 14.5 µM (active)
[18]
  IC50: 2.92 µM (active)
